In US9339541B2, “Thiophosphate nucleosides for the treatment of HCV” (priority 2013, dated 2016):

tested on: HCV genotype 1b replicon; type: cell-based; conditions: Huh-7-derived cell line (Zluc), HCV genotype 1b replicon with luciferase reporter, 72 hours of incubation

`CC(C)OC(=O)[C@H](C)NP(=O)(OC[C@H]1O[C@@H](n2ccc(=O)[nH]c2=O)[C@](C)(O)[C@@H]1O)SCC1NC(=O)NC1=O` (single isomer, unassigned) [4b Diastereomer 1] and `CCOC(=O)CCSP(=O)(N[C@@H](C)C(=O)OC(C)C)OC[C@H]1O[C@@H](n2ccc(=O)[nH]c2=O)[C@](C)(O)[C@@H]1O` (stereo partly drawn) [Compound 15b] cannot be ordered by EC50: over 10 µM for the first, over 10 µM for the second.

First: CCOc1nc(N)nc2c1ncn2[C@@H]1O[C@H](COP(=O)(N[C@@H](C)C(=O)OC(C)C)SCC2NC(=O)NC2=O)[C@@H](O)[C@@]1(C)F (single isomer, unassigned) [3b Diastereomer 1]
Second: CCOC(=O)[C@H](C)NP(=O)(OC[C@H]1O[C@@H](n2cnc3c(OCC)nc(N)nc32)[C@](C)(O)[C@@H]1O)SCC (stereo partly drawn) [Compound 10b]
The EC50 of the first is higher: 1 to 10 µM for the first, at most 0.25 µM for the second.

`CCOC(=O)[C@H](C)NP(=O)(OC[C@H]1O[C@@H](n2cnc3c(=O)[nH]c(N)nc32)[C@](C)(O)[C@@H]1O)SCC` (stereo partly drawn) [Compound 13b] and `COC(=O)N[C@@H](CSP(=O)(N[C@@H](C)C(=O)OC(C)C)OC[C@H]1O[C@@H](n2cnc3c(OC)nc(N)nc32)[C@](C)(O)[C@@H]1O)C(=O)OC(C)C` (stereo partly drawn) [Compound 2by] fall in the same range of EC50: 1 to 10 µM for the first, 1 to 10 µM for the second.

First: CC(C)OC(=O)[C@H](C)NP(=O)(OC[C@H]1O[C@@H](n2ccc(=O)[nH]c2=O)[C@](C)(Cl)[C@@H]1O)SC1CCCC1 (single isomer, unassigned) [8b Diastereomer 1]
Second: CC(C)OC(=O)[C@@H](C)NP(=O)(OC[C@H]1O[C@@H](n2ccc(=O)[nH]c2=O)[C@](C)(Cl)[C@@H]1O)SC1CCCC1 (single isomer, unassigned) [8a Diastereomer 1]
The EC50 of the first is lower: 1 to 10 µM for the first, over 10 µM for the second. The first is the more potent here.

`COC(=O)CSP(=O)(N[C@@H](C)C(=O)OC(C)C)OC[C@H]1O[C@@H](n2ccc(=O)[nH]c2=O)[C@](C)(Cl)[C@@H]1O` (stereo partly drawn) [Compound 17b] gave an EC50 of over 10 µM.
